Measurements from ChEMBL document CHEMBL5120971, “Network Pharmacology Research and Dual-omic Analyses Reveal the Molecular Mechanism of Natural Product Nodosin Inhibiting Muscle-Invasive Bladder Cancer in Vitro and in Vivo” (J Nat Prod, 2022).
The source made the active and inactive calls. The calls are words filed in the database; no cut-off is given here.

Experiments:
[1] = Toxicity in human T24 cells xenografted BALB/c mouse assessed as effect on body weight at 2 mg/kg, ip administered at 2 days interval; assay type: organism-based, T-24; conditions: in vivo, 48 h
T-24 [2] = assay: Induction of apoptosis in human T24 cells assessed as up regulation of SQSTM1 gene expression at 6 uM measured after 12 to 18 hrs by transcriptome analysis; assay type: functional, cell-based; conditions: time 12-18 hrs
T-24 [3] = assay: Induction of autophagy in human T24 cells assessed as effect on OPTN gene expression at 12 to 18 uM measured after 24 to 30 hrs by analysis; assay type: functional, cell-based; conditions: dose 12-18 µM, time 24-30 hrs
T-24 [4] = assay: Effect on RPA2 expression in human T24 cells at 6 uM measured after 24 to 30 hrs by proteomic analysis; assay type: functional, cell-based; conditions: time 24-30 hrs
T-24 [5] = assay: Up regulation of AIFM2 expression in human T24 cells at 6 uM measured after 24 to 30 hrs by proteomic analysis; assay type: functional, cell-based; conditions: time 24-30 hrs
T-24 [6] = assay: Induction of apoptosis in human T24 cells assessed as early apoptotic cells at 4 uM measured after 48 hrs by Annexin V-FITC/propidium iodide staining based flow cytometry (reference value: 1.2%); assay type: functional
T-24 [7] = assay: Induction of morphological changes in human T24 cells assessed as reduction in cell extension at 4 to 12 uM measured after 48 hrs by microscopy; assay type: functional, cell-based; conditions: dose 4-12 µM
T-24 [8] = assay: Induction of apoptosis in human T24 cells assessed as effect on AIFM2 expression at 6 uM measured after 24 to 30 hrs by proteomic analysis; assay type: functional, cell-based; conditions: time 24-30 hrs
T-24 [9] = assay: Induction of apoptosis in human T24 cells assessed as late apoptotic cells at 6 uM measured after 48 hrs by Annexin V-FITC/propidium iodide staining based flow cytometry (reference value: 0.74%); assay type: functional
T-24 [10] = assay: Antimigratory activity against human T24 cells at 4 to 12 uM measured after 24 hrs by scratch test; assay type: functional, cell-based; conditions: dose 4-12 µM
T-24 [11] = assay: Induction of apoptosis in human T24 cells assessed as early apoptotic cells at 6 uM measured after 48 hrs by Annexin V-FITC/propidium iodide staining based flow cytometry (reference value: 1.2%); assay type: functional
T-24 [12] = assay: Induction of autophagy in human T24 cells assessed as effect on PRKAA2 gene expression at 6 uM measured after 12 to 18 hrs by transcriptome analysis; assay type: functional, cell-based; conditions: time 12-18 hrs
T-24 [13] = assay: Induction of apoptosis in human T24 cells assessed as effect on DHCR24 expression at 6 uM measured after 24 to 30 hrs by proteomic analysis; assay type: functional, cell-based; conditions: time 24-30 hrs
T-24 [14] = assay: Up regulation of FTL expression in human T24 cells at 6 uM measured after 24 to 30 hrs by proteomic analysis; assay type: functional, cell-based; conditions: time 24-30 hrs
T-24 [15] = assay: Cytotoxicity against human T24 cells assessed as reduction in cell growth by CCK8 assay; assay type: functional, cell-based
T-24 [16] = assay: Induction of apoptosis in human T24 cells assessed as viable cells at 6 uM measured after 48 hrs by Annexin V-FITC/propidium iodide staining based flow cytometry (reference value: 97.49%); assay type: functional; conditions: read-out: Activity
T-24 [17] = assay: Induction of autophagy in human T24 cells assessed as effect on LGALS8 gene expression at 6 uM measured after 12 to 18 hrs by transcriptome analysis; assay type: functional, cell-based; conditions: time 12-18 hrs
T-24 [18] = assay: Induction of apoptosis in human T24 cells assessed as late apoptotic cells at 8 uM measured after 48 hrs by Annexin V-FITC/propidium iodide staining based flow cytometry (reference value: 0.74%); assay type: functional
T-24 [19] = assay: Effect on RHOB expression in human T24 cells at 6 uM measured after 24 to 30 hrs by proteomic analysis; assay type: functional, cell-based; conditions: time 24-30 hrs
T-24 [20] = assay: Induction of mitochondrial membrane disruption in human T24 cells at 4 to 8 uM measured after 48 hrs by transmission electron microscopy; assay type: cell-based; conditions: dose 4-8 µM
T-24 [21] = assay: Effect on CLSPN expression in human T24 cells at 6 uM measured after 24 to 30 hrs by proteomic analysis; assay type: functional, cell-based; conditions: time 24-30 hrs
UMUC3 = assay: Cytotoxicity against human UMUC3 cells assessed as reduction in cell growth at 4 uM by CCK8 assay; assay type: functional, cell-based; conditions: time 24-72 hrs, TDE = time-dependent effect
T-24 [22] = assay: Inhibition of DNA replication in human T24 cells at 4 to 10 uM measured after 24 hrs by EdU staining based fluorescence assay; assay type: functional, cell-based; conditions: dose 4-10 µM
T-24 [23] = assay: Up regulation of AIFM2 gene expression in human T24 cells at 6 uM measured after 12 to 18 hrs by transcriptome analysis; assay type: functional, cell-based; conditions: time 12-18 hrs
T-24 [24] = assay: Induction of apoptosis in human T24 cells assessed as viable cells at 8 uM measured after 48 hrs by Annexin V-FITC/propidium iodide staining based flow cytometry (reference value: 97.49%); assay type: functional; conditions: read-out: Activity
T-24 [25] = assay: Induction of apoptosis in human T24 cells assessed as up regulation of HMOX1 expression at 6 to 12 uM measured after 24 to 30 hrs by Western blot analysis; assay type: functional, cell-based; conditions: dose 6-12 µM, time 24-30 hrs
T-24 [26] = assay: Induction of morphological changes in human T24 cells assessed as appearance of apoptotic bodies at 4 to 8 uM measured after 48 hrs by transmission electron microscopy; assay type: functional, cell-based; conditions: dose 4-8 µM
T-24 [27] = assay: Inhibition of colony formation in human T24 cells at 1 to 12 uM measured after 12 days by crystal violet staining based microscopy; assay type: functional, cell-based; conditions: dose 1-12 µM, time 12.0 day
T-24 [28] = assay: Antimigratory activity against human T24 cells assessed as down regulation of LIMA1 expression at 6 uM measured after 24 to 30 hrs by proteomic analysis; assay type: functional, cell-based; conditions: time 24-30 hrs
T-24 [29] = assay: Induction of mitochondrial membrane potential loss in human T24 cells at 8 to 16 uM measured after 24 hrs by JC1 dye based fluorescence assay; assay type: functional, cell-based; conditions: dose 8-16 µM
T-24 [30] = assay: Effect on CDKN3 expression in human T24 cells at 6 uM measured after 24 to 30 hrs by proteomic analysis; assay type: functional, cell-based; conditions: time 24-30 hrs
T-24 [31] = assay: Induction of autophagy in human T24 cells assessed as effect on RAB24 gene expression at 6 uM measured after 12 to 18 hrs by transcriptome analysis; assay type: functional, cell-based; conditions: time 12-18 hrs
T-24 [32] = assay: Effect on POLD3 expression in human T24 cells at 6 uM measured after 24 to 30 hrs by proteomic analysis; assay type: functional, cell-based; conditions: time 24-30 hrs
T-24 [33] = assay: Up regulation of SLC7A11 expression in human T24 cells at 6 uM measured after 24 to 30 hrs by proteomic analysis; assay type: functional, cell-based; conditions: time 24-30 hrs
T-24 [34] = assay: Effect on SUMO3 expression in human T24 cells at 6 uM measured after 24 to 30 hrs by proteomic analysis; assay type: functional, cell-based; conditions: time 24-30 hrs
T-24 [35] = assay: Induction of apoptosis in human T24 cells assessed as effect on G0S2 expression at 6 uM measured after 24 to 30 hrs by proteomic analysis; assay type: functional, cell-based; conditions: time 24-30 hrs
T-24 [36] = assay: Antiproliferative activity against human T24 cells assessed as reduction in Ki67 expression at 4 to 12 uM measured after 24 hrs by DAPI staining based immunofluorescence analysis; assay type: functional, cell-based; conditions: dose 4-12 µM
T-24 [37] = assay: Cell cycle arrest in human T24 cells assessed as increase in cell accumulation at S-phase at 2 to 8 uM measured after 24 hrs by propidium iodide staining based flow cytometry; assay type: functional; conditions: dose 2-8 µM
T-24 [38] = assay: Induction of autophagy in human T24 cells assessed as effect on FLCN gene expression at 6 uM measured after 12 to 18 hrs by transcriptome analysis; assay type: functional, cell-based; conditions: time 12-18 hrs

**Q.** For `C=C1C(=O)[C@]23C[C@H]1C[C@@H](O)[C@H]2[C@@]12CO[C@@H](O)[C@@H]1C(C)(C)CC[C@@H]2OC3=O` [NODOSIN], which Activity [1] is on record?
**A.** Non-Toxic

**Q.** And the Activity (T-24 [2])?
**A.** Active

**Q.** And the Activity (T-24 [3])?
**A.** Active

**Q.** What about the Activity (T-24 [4]) of the same molecule?
**A.** Active

**Q.** And the Activity (T-24 [5])?
**A.** Active

**Q.** And the Activity (T-24 [6])?
**A.** 2.38%

**Q.** What about the Activity (T-24 [7]) of the same molecule?
**A.** Active

**Q.** And the Activity (T-24 [8])?
**A.** Active

**Q.** And the Activity (T-24 [9])?
**A.** 10.04%

**Q.** And the Activity (T-24 [10])?
**A.** Active

**Q.** And the Activity (T-24 [11])?
**A.** 10.74%

**Q.** What about the Activity (T-24 [12]) of the same molecule?
**A.** Active

**Q.** What about the Activity (T-24 [13]) of the same molecule?
**A.** Active

**Q.** What about the Activity (T-24 [14]) of the same molecule?
**A.** Active

**Q.** And the IC50 (T-24 [15])?
**A.** 4.91 µM

**Q.** And the Activity (T-24 [15]; DDE = dose-dependent effect)?
**A.** Dde

**Q.** What about the viability at 6 µM (T-24 [16]) of the same molecule?
**A.** 78.8%

**Q.** And the Activity (T-24 [17])?
**A.** Active

**Q.** And the Activity (T-24 [18])?
**A.** 13.17%

**Q.** And the Activity (T-24 [19])?
**A.** Active

**Q.** What about the Activity (T-24 [20]) of the same molecule?
**A.** Active

**Q.** And the Activity (T-24 [21])?
**A.** Active

**Q.** And the Activity (UMUC3)?
**A.** Tde

**Q.** And the inhibition (T-24 [22])?
**A.** Active

**Q.** And the Activity (T-24 [23])?
**A.** Active

**Q.** And the viability at 8 µM (T-24 [24])?
**A.** 75.9%

**Q.** And the Activity (T-24 [25])?
**A.** Active

**Q.** And the Activity (T-24 [26])?
**A.** Active

**Q.** What about the inhibition (T-24 [27]) of the same molecule?
**A.** Active

**Q.** What about the Activity (T-24 [28]) of the same molecule?
**A.** Active

**Q.** And the Activity (T-24 [29])?
**A.** Active

**Q.** What about the Activity (T-24 [30]) of the same molecule?
**A.** Active

**Q.** What about the Activity (T-24 [31]) of the same molecule?
**A.** Active

**Q.** And the Activity (T-24 [32])?
**A.** Active

**Q.** What about the Activity (T-24 [33]) of the same molecule?
**A.** Active

**Q.** What about the Activity (T-24 [34]) of the same molecule?
**A.** Active

**Q.** And the Activity (T-24 [35])?
**A.** Active

**Q.** What about the Activity (T-24 [36]) of the same molecule?
**A.** Active

**Q.** What about the Activity (T-24 [37]) of the same molecule?
**A.** Active

**Q.** And the Activity (T-24 [38])?
**A.** Active
